According to patent US9586951B2 (FUJIFILM Corporation, priority 2013, dated 2017):

Tests used:
[1] = molecular target: T1, ATM (Homo sapiens, UniProt Q13315); assay: ATM inhibition test (phosphorylation of Chk2 generated by ionizing radiation, AlphaScreen SureFire); type: cell-based; settings: phosphorylated Chk2 in NCI-H460 cells, ionizing radiation 8Gy, 1 hour after test compound treatment; read-out: ATM inhibitory activity
T1 construct: detecting phosphorylation of Chk2 in a human non-small cell lung cancer cell line NCI-H460 (ATCC company); host or cells: NCI-H460 human non-small cell lung cancer cells
Procedure, shortened: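 Phosphorylated Chk2 read by AlphaScreen SureFire in human non-small cell lung cancer NCI-H460 cells, 1 hour after 8Gy ionizing radiation at 37° C. Compound added 1 hour before irradiation. Percent inhibition normalised between irradiated and non-irradiated drug-untreated signals.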

[2] = system: human non-small cell lung cancer cell line NCI-H460; assay: Cell proliferation inhibition test by sensitivity-enhancing to ionizing radiation (Cell Titer Glo); type: cell-based; settings: Homo sapiens, NCI-H460, 120 h, concentration in which SER became 2, NCI-H460 cells, ionizing radiation 2 Gy, cultured 120 hour
Procedure, shortened: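 Radiosensitisation measured as SER, a ratio of Cell Titer Glo luminescence in irradiated vs unirradiated plates relative to DMSO; SER2, the concentration yielding SER 2, came from sigmoidal regression. Compound (0.1% DMSO) was given 24 h post-seeding, 2 Gy applied 30 min later, then 120 hour culture at 37° C.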

T1 sequence (Q13315 whole entry): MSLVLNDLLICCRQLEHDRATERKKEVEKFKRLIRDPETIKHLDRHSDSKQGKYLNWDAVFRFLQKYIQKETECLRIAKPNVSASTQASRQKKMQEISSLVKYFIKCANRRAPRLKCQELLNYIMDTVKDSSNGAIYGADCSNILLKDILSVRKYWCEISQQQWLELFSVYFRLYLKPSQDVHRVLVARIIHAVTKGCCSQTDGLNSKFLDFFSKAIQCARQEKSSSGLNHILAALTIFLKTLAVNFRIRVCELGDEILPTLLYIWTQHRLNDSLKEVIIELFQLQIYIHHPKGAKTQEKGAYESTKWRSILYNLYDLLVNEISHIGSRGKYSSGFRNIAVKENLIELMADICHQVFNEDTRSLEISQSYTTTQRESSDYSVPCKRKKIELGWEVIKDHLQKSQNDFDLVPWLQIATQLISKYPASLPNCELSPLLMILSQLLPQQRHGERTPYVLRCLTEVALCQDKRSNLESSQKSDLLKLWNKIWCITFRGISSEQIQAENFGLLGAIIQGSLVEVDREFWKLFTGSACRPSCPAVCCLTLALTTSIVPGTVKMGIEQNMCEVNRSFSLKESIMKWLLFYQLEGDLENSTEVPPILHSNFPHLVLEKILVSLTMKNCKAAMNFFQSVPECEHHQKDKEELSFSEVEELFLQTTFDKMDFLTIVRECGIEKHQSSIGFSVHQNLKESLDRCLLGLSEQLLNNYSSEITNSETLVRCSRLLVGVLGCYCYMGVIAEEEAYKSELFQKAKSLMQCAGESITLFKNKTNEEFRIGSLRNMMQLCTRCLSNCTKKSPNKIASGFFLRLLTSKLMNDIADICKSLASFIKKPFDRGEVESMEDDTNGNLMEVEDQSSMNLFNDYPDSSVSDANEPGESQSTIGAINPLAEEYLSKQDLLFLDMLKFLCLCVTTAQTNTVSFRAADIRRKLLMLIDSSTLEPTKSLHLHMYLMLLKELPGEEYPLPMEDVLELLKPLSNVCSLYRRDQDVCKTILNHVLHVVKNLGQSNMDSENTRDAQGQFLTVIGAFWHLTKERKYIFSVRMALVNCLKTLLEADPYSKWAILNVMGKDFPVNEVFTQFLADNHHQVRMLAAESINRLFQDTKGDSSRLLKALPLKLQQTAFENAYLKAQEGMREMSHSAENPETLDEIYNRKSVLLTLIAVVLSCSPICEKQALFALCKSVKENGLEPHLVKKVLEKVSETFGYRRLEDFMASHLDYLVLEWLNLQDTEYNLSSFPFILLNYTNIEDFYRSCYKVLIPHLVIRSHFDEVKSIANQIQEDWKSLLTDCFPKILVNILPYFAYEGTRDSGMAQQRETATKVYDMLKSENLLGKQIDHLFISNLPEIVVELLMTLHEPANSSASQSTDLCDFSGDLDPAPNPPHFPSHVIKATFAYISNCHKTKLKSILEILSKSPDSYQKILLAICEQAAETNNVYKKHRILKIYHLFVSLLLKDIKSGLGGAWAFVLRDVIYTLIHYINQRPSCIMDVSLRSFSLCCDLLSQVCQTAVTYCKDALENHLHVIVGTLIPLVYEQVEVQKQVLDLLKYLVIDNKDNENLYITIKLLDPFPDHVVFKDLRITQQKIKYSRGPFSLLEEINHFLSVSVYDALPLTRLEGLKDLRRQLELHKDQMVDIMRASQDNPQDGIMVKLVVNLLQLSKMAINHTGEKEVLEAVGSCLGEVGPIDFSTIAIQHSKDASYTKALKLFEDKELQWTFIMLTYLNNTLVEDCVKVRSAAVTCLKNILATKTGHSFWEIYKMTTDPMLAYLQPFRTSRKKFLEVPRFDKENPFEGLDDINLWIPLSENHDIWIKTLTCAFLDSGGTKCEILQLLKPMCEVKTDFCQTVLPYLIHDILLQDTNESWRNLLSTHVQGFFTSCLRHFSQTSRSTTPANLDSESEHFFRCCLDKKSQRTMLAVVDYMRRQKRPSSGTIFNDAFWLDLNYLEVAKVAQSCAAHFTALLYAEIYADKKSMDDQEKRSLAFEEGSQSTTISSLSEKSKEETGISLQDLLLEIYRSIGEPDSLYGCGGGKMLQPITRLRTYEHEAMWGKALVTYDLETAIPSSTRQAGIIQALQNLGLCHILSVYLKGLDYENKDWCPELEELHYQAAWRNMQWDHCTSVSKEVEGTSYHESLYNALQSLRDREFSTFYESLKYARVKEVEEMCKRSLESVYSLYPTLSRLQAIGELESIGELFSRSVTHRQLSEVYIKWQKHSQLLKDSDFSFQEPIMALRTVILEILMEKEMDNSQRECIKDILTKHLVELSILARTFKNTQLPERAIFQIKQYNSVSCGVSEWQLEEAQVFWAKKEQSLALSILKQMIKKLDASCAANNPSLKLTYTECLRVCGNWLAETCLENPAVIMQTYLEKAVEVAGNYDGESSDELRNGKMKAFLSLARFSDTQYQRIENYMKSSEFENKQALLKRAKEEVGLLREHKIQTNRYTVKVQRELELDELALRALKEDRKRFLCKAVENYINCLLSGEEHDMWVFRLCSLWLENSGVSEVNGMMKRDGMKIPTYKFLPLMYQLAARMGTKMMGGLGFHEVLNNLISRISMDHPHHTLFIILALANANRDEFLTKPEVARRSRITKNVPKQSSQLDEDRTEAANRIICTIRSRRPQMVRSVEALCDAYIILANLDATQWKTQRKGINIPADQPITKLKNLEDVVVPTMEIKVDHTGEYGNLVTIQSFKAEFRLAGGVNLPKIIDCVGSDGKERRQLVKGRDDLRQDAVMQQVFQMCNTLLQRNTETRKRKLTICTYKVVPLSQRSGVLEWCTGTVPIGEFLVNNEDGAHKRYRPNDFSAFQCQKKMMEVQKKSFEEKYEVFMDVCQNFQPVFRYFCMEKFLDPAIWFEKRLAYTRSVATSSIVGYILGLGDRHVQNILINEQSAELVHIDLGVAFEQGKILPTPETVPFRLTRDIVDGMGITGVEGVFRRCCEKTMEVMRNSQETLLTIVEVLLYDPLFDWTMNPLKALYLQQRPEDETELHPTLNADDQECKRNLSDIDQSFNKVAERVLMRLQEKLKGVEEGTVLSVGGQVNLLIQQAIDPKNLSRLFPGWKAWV

SMILES | IC50 [1] [nM] | SER2 (concentration at which the radiation sensitivity-enhancement ratio reaches 2) [2] [nM] | IC50 ([2]; read-out: SER2) [nM]
CCN(C)CCC(Nc1ccc2c(c1)Sc1cccc(-c3cc(N4CCOCC4)cc(=O)[nH]3)c1S2)c1cnc(C)cn1 (stereo not drawn) [Example 1-23-2, 6-(7-((3-(Ethyl(methyl)amino)-1-(5-methylpyrazin-2-yl)propyl)amino)thianthren-1-yl)-4-morpholinopyridin-2(1H)-one] | < 100 | 100 to 500 | –
COC[C@H](CN1CCOC[C@H]1C)Nc1ccc2c(c1)Sc1cccc(-c3cc(N4CCOCC4)cc(=O)[nH]3)c1S2 [Example 1-46-4, 6-(7-(((S)-1-Methoxy-3-((R)-3-methylmorpholino)propan-2-yl)amino)thianthren-1-yl)-4-morpholino pyridin-2(1H)-one] | < 100 | 100 to 500 | –
O=c1cc(N2CCOCC2)cc(-c2cccc3c2Sc2ccc(NCCN4CCCCC4)cc2S3)[nH]1 [Example 1-10-10] | < 100 | 100 to 500 | –
Cc1cncc(C(C)Nc2ccc3c(c2)Sc2cccc(-c4cc(N5CCOCC5)cc(=O)[nH]4)c2O3)c1 (stereo not drawn) [Example 4-4-29, 6-(8-((1-(5-Methylpyridin-3-yl)ethyl)amino)phenoxathiin-4-yl)-4-morpholino pyridin-2(1H)-one] | < 100 | 100 to 500 | –
Cc1cccc(C(Nc2ccc3c(c2)Sc2cccc(-c4cc(N5CCOCC5)cc(=O)[nH]4)c2S3)C2CCN(C)C2)n1 (single isomer, unassigned) [Example 1-22-6, 6-(7-(((6-Methylpyridin-2-yl)(1-methylpyrrolidin-3-yl)methyl)amino)thianthren-1-yl)-4-morpholino pyridin-2 (1H)-one] | < 100 | < 100 | –
O=c1cc(N2CCOCC2)cc(-c2nccc3c2Oc2ccc(NCc4cc(Cl)ccn4)cc2C3)[nH]1 [Example 2-41-3, 6-(7-(((4-Chloropyridin-2-yl)methyl)amino)-5H-chromeno [2,3-c]pyridin-1-yl)-4-morpholino pyridin-2(1H)-one] | < 100 | 100 to 500 | –
Cc1cccc(CNc2ccc3c(c2)Sc2cccc(-c4cc(N5CCOCC5)cc(=O)[nH]4)c2S3)n1 [Example 1-12-2, 6-(7-(((6-Methylpyridin-2-yl)methyl)amino)thianthren-1-yl)-4-1-morpholino pyridin-2 (1H)-one] | < 100 | < 100 | –
Nc1ccc2c(c1)Sc1cccc(-c3cc(N4CCOCC4)cc(=O)[nH]3)c1S2 [Example 1-1, 6-(7-aminothianthren-1-yl)-4-morpholinopyridin-2(1H)-one] | < 100 | 500 to 2000 | –
Cc1ccc(C(C)Nc2ccc3c(c2)Sc2cccc(-c4cc(N5CCOCC5)cc(=O)[nH]4)c2S3)nc1 (single isomer, unassigned) [Example 1-12-143-1, 6-(7-((1-(5-methylpyridin-2-yl)ethyl)amino)thianthren-1-yl)-4-morpholinopyridin-2(1H)-one] | < 100 | < 100 | –
Cc1cnc(C(CF)Nc2ccc3c(c2)Sc2cccc(-c4cc(N5CCOCC5)cc(=O)[nH]4)c2S3)nc1 (stereo not drawn) [Example 1-12-93, 6-(7-((2-Fluoro-1-(5-methylpyrimidin-2-yl)ethyl)amino)thianthren-1-yl)-4-morpholino pyridin-2(1H)-one] | < 100 | 100 to 500 | –
COc1cncc(CNc2ccc3c(c2)Sc2cccc(-c4cc(N5CCOCC5)cc(=O)[nH]4)c2S3)c1 [Example 1-44-1, 6-(7-(((5-methoxypyridin-3-yl)methyl)amino)thianthren-1-yl)-4-morpholinopyridin-2(1H)-one] | < 100 | 500 to 2000 | –
Cc1ccnc(CNc2ccc3c(c2)Sc2cccc(-c4cc(N5CCOCC5)cc(=O)[nH]4)c2S3)c1 [Example 1-12-5, 6-(7-(((4-Methylpyridin-2-yl)methyl)amino)thianthren-1-yl)-4-morpholino pyridin-2 (1H)-one] | < 100 | 100 to 500 | –
CC(Nc1ccc2c(c1)Cc1cccc(-c3cc(N4CCOCC4)cc(=O)[nH]3)c1O2)c1nccc(CF)n1 (single isomer, unassigned) [Example 2-14-94-1, 6-(7-((1-(4-(fluoromethyl)pyrimidin-2-yl)ethyl)amino)-9H-xanthen-4-yl)-4-morpholinopyridin-2(1H)-one] | < 100 | < 100 | –
O=c1cc(N2CCOCC2)cc(-c2cccc3c2Oc2ccc(NCc4cncc(C5CCCC5)c4)cc2S3)[nH]1 [Example 4-8-15, 6-(8-(((5-Cyclopentylpyridin-3-yl)methyl)amino)phenoxathiin-4-yl)-4-morpholino pyridin-2(1H)-one] | < 100 | 500 to 2000 | –
COc1ncc(CNc2ccc3c(c2)Sc2cccc(-c4cc(N5CCOCC5)cc(=O)[nH]4)c2O3)cn1 [Example 4-4-4, 6-(8-(((2-Methoxypyrimidin-5-yl)methyl)amino)phenoxathiin-4-yl)-4-morpholino pyridin-2 (1H)-one] | < 100 | 500 to 2000 | –
Cc1cccc(CNc2ccc3c(c2)Sc2cccc(-c4cc(N5CCOCC5)cc(=O)[nH]4)c2O3)n1 [Example 4-8-5, 6-(8-(((6-Methylpyridin-2-yl)methyl)amino)phenoxathiin-4-yl)-4-morpholino pyridin-2(1H)-one] | < 100 | 100 to 500 | –
Cc1cccc(C(CCN2CCOCC2)Nc2ccc3c(c2)Sc2cccc(-c4cc(N5CCOCC5)cc(=O)[nH]4)c2S3)n1 (stereo not drawn) [Example 1-34-4] | < 100 | < 100 | –
CC(CN1CCN(c2ccccn2)CC1)Nc1ccc2c(c1)Sc1cccc(-c3cc(N4CCOCC4)cc(=O)[nH]3)c1S2 (stereo not drawn) [Example 1-13-17, 4-Morpholino-6-(7-((1-(4-(pyridin-2-yl)piperazin-1-yl)propan-2-yl)amino)thianthren-1-yl)pyridin-2 (1H)-one] | < 100 | 100 to 500 | –
Cc1cccc(C(Nc2ccc3c(c2)Sc2cccc(-c4cc(N5CCOCC5)cc(=O)[nH]4)c2S3)C2CCCN(C)C2)n1 (single isomer, unassigned) [Example 1-22-4, 6-(7-(((1-Methylpiperidin-3-yl)(6-methylpyridin-2-yl)methyl)amino)thianthren-1-yl)-4-morpholino pyridin-2 (1H)-one] | < 100 | < 100 | –
O=c1cc(N2CCOCC2)cc(-c2c(F)ccc3c2Oc2ccc(NCc4cncc(Cl)c4)cc2C3)[nH]1 [Example 2-46-2, 6-(7-(((5-Chloropyridin-3-yl)methyl)amino)-3-fluoro-9H-xanthen-4-yl)-4-morpholinopyridin-2(1H)-one] | < 100 | 100 to 500 | –
[2H]C([2H])([2H])C(Nc1ccc2c(c1)Sc1cccc(-c3cc(N4CCOCC4)cc(=O)[nH]3)c1S2)c1cccc(F)n1 (stereo not drawn) [Example 1-12-134, 4-Morpholino-6-(7-((2,2,2-trideutero-1-(6-fluoropyridin-2-yl)ethyl)amino)thianthren-1-yl) pyridin-2(1H)-one] | < 100 | 100 to 500 | –
CC(Nc1ccc2c(c1)Cc1cccc(-c3cc(N4CCOCC4)cc(=O)[nH]3)c1O2)c1cccc(F)n1 (single isomer, unassigned) [Example 2-14-87-1, 6-(7-((1-(6-fluoropyridin-2-yl)ethyl)amino)-9H-xanthen-4-yl)-4-morpholinopyridin-2(1H)-one] | < 100 | 100 to 500 | –
COc1cnc(C(C)Nc2ccc3c(c2)Sc2cccc(-c4cc(N5CCOCC5)cc(=O)[nH]4)c2S3)cn1 (stereo not drawn) [Example 1-12-114, 6-(7-((1-(5-Methoxypyrazin-2-yl)ethyl)amino)thianthren-1-yl)-4-morpholino pyridin-2(1H) one] | < 100 | 100 to 500 | –
CC(Nc1ccc2c(c1)Cc1cccc(-c3cc(N4CCOCC4)cc(=O)[nH]3)c1O2)c1nccc(CF)n1 (stereo not drawn) [Example 2-14-61, 6-(7-((1-(4-(Fluoromethyl)pyrimidin-2-yl)ethyl)amino)-9H-xanthen-4-yl)-4-morpholino pyridin-2(1H)-one] | < 100 | < 100 | –
COc1ccnc(CNc2ccc3c(c2)Cc2cccc(-c4cc(N5CCOCC5)cc(=O)[nH]4)c2O3)n1 [Example 2-13-8, 6-(7-(((4-Methoxypyrimidin-2-yl)methyl)amino)-9H-xanthen-4-yl)-4-morpholino pyridin-2(1H)-one] | < 100 | 500 to 2000 | –
COc1ccc(CNc2ccc3c(c2)Sc2cccc(-c4cc(N5CCOCC5)cc(=O)[nH]4)c2O3)nc1 [Example 4-8-17, 6-(8-(((5-Methoxypyridin-2-yl)methyl)amino)phenoxathiin-4-yl)-4-morpholino pyridin-2(1H)-one] | < 100 | 100 to 500 | –
O=c1cc(N2CCOCC2)cc(-c2cccc3c2Oc2ccc(NCc4cc(-c5cccnc5)ccn4)cc2C3)[nH]1 [Example 2-2-72] | < 100 | – | 100 to 500
